In patent US20210177982A1, “MUCUS-PENETRATING PEPTIDES, DELIVERY VEHICLES AND METHODS OF THERAPY” (DNALite Therapeutics, Inc., priority 2018, published 2021):
Ends that are not written are not given here.

Assays:
[1] = pH 7 (No salt); cited from earlier work
[2] = 25° C., RP-HPLC, Ac-X-G-A-K-G-A-G-V-G L-amide; cited from earlier work
[3] = system: mucin from porcine stomach; test: Peptide mucin interaction assay (dynamic light scattering); assay type: binding; conditions: peptide conjugated to DSPE-PEG2k-DBCO at 0.08% mol on MVL5/DOPC/Chol base system with DNA; 0.5 mg/mL mucin, sample:mucin 5:2
Experimental: DSPE-PEG2k-DBCO (Avanti Polar Lipids) was hydrated in water and agitated to form a transparent solution. Synthesized peptides with a lysine containing an azide on the N-terminus were conjugated to it. 2.5× moles of the azide peptides were added to the lipid mix and were left to react overnight. 10× moles of sodium azide were added to the reaction to quench it.
Thin film hydration was used to make a lipid base system composed of MVL5/DOPC/Chol (30/60/10% mol). Briefly, the lipids were dissolved in chloroform: methanol (9:1) and mixed. The lipids were then dried using a rotovap and hydrated in a HEPES-glucose buffer (10 mM HEPES, 230 mM Glucose, pH 7.4) for a final concentration of 1 mM. The lipid suspension was extruded through a 200 nm pore size filter for 20 passes using the NanoSizer MINI (T&T Scientific Corporation, Tennessee). An appropriate amount of DNA was added to the lipid base system for a charge ratio of +3 (assuming MVL5 has a charge ratio of +3 at neutral pH) and the solution was mixed thoroughly and let rest for 20 min. DSPE-PEG2k-DBCO conjugated peptides were added to the base system for a final lipid concentration of 0.08% mol. DSPE-SS-PEG2k was added to the base system for a final lipid concentration of 5% mol. The solutions were incubated for 1 h at 60° C.
For each sample, purified 0.5 mg/mL mucin from porcine stomach (Sigma Aldrich) was added to the sample at a sample:mucin volume ratio of 5:2. Dynamic light scattering was used to measure changes in light scattering in the presence of and without mucin for each sample. […] Thus SEQ ID NO. […] Thus SEQ ID NO. […] Thus SEQ ID NO. […] 4 conjugated systems, where peak shifting was not observed in the presence of mucin. Thus SEQ ID NO. […] 5 conjugated systems where peak shifting was not observed in the presence of mucin. Thus SEQ ID NO. […] 6 conjugated systems where peak shifting was not observed in the presence of mucin. Thus SEQ ID NO. […] FIG. 11 show SEQ ID NO. 7 conjugated systems where peak shifting was not observed in the presence of mucin. Thus SEQ ID NO. […] Thus SEQ ID NO. […] Thus SEQ ID NO. […] Thus, SEQ ID NO. […] Thus SEQ ID NO. […] FIG. 16 show SEQ ID NO. […] Thus SEQ ID NO.

| Compound | ΔtR(Gly), pH 2, 20 mM H3PO4 [2] | ΔtR(Gly), pH 2, 20 mM TFA [2] | ΔtR(Gly), pH 5, 10 mM PO4 Buffer [2] | ΔtR(Gly), pH 7, 10 mM PO4 Buffer +50 mM NaCl [2] | ΔtR(Gly), pH 7, 10 mM PO4 Buffer +50 mM NaClO4 [2] | ΔtR(Gly), pH 7, 10 mM PO4 Buffer, No Salt [2] | interaction with mucin (shift in DLS light intensity peak) [3] | other results |
| --- | --- | --- | --- | --- | --- | --- | --- | --- |
| C[C@H](N)C(=O)O [Ala] | 3.6 | 2.8 | 3.3 | 4.1 | 3.4 | 3.9 |  | Fauchere Score [1]: 0.3 |
| N=C(N)NCCC[C@H](N)C(=O)O [Arg] | −5.0 | 0.6 | −3.7 | 4.1 | 6.4 | 3.9 |  | Fauchere Score [1]: −1.010 |
| NC(=O)C[C@H](N)C(=O)O [Asn] | 0.0 | −0.6 | 0.0 | 1.0 | 30.8 | 0.5 |  | Fauchere Score [1]: −0.600 |
| N[C@@H](CC(=O)O)C(=O)O [Asp] | 2.2 | 1.6 | −1.0 | −0.8 | −7.6 | −0.9 |  | Fauchere Score [1]: −0.770 |
| N[C@@H](CS)C(=O)O [Cys] | 8.1 | 7.6 | 7.9 | 9.1 | 8.2 | 8.3 |  |  |
| NC(=O)CC[C@H](N)C(=O)O [Gln] | 0.5 | 0.6 | 0.6 | 1.6 | 0.0 | 0.5 |  | Fauchere Score [1]: −0.220 |
| N[C@@H](CCC(=O)O)C(=O)O [Glu] | 3.6 | 2.8 | −0.5 | −0.4 | −7.1 | −0.9 |  | Fauchere Score [1]: −0.640 |
| NCC(=O)O [Gly, Glycine] | 0.0 | 0.0 | 0.0 | 0.0 | 0.0 | 0.0 |  | Fauchere Score [1]: 0 |
| N[C@@H](Cc1c[nH]cn1)C(=O)O [His] | −7.0 | 0.0 | −5.1 | 4.7 | 3.4 | 3.4 |  | Fauchere Score [1]: 0.130 |
| N[C@@H](CO)C(=O)O [Ser] | 0.0 | 0.0 | 0.0 | 1.2 | 30.5 | 0.5 |  |  |
| CCCC[C@H](N)C(=O)O [n-Leu, norleucine] | 24.6 | 24.6 | 25.6 | 25.9 | 26.6 | 25.6 |  |  |
| CCC[C@H](N)C(=O)O [n-Val, norvaline] | 15.4 | 15.2 | 15.9 | 16.9 | 16.8 | 16.3 |  |  |
| ADDLENVNEGMRIH [SEQ ID NO. 21] |  |  |  |  |  |  | found to not be mucin interacting |  |
| DATDRFHGPDAL [SEQ ID NO. 26] |  |  |  |  |  |  | found to be mucin interacting |  |
| DPVDTPNPTRRKPGK [SEQ ID NO. 24] |  |  |  |  |  |  | found to be mucin interacting |  |
| EPDNWSLDFPRR [SEQ ID NO. 8] |  |  |  |  |  |  | found to interact with mucin |  |
| HPGSPFPPEHRP [SEQ ID NO. 12] |  |  |  |  |  |  | found to be interacting with mucin |  |
| KTIEAHPPYYAS [SEQ ID NO. 7] |  |  |  |  |  |  | found not to interact with mucin |  |
| LIIYRDLISH [SEQ ID NO. 36, reference compound] |  |  |  |  |  |  | disappearance of the system peak was observed demonstrating mucin interaction |  |

| Compound | ΔtR(Gly), pH 2, 20 mM H3PO4 [2] | ΔtR(Gly), pH 2, 20 mM TFA [2] | ΔtR(Gly), pH 5, 10 mM PO4 Buffer [2] | ΔtR(Gly), pH 7, 10 mM PO4 Buffer +50 mM NaCl [2] | ΔtR(Gly), pH 7, 10 mM PO4 Buffer +50 mM NaClO4 [2] | ΔtR(Gly), pH 7, 10 mM PO4 Buffer, No Salt [2] | interaction with mucin (shift in DLS light intensity peak) [3] | other results |
| --- | --- | --- | --- | --- | --- | --- | --- | --- |
| LSTAADMQGVVTDGMASGLDKDYLKPDD [SEQ ID NO. 22] |  |  |  |  |  |  | found to not interact with mucin |  |
| MAKPAQGAKY [SEQ ID NO. 2] |  |  |  |  |  |  | found to interact with mucin |  |
| MATKGGTVKA [SEQ ID NO. 1] |  |  |  |  |  |  | found not to interact with mucin |  |
| MSVTGGKMAP [SEQ ID NO. 3] |  |  |  |  |  |  | found to be interacting with mucin |  |
| NIENSTLATPLS [SEQ ID NO. 32] |  |  |  |  |  |  | found to be mucin interacting |  |
| NSGTMQSASRAT [SEQ ID NO. 5] |  |  |  |  |  |  | found not to interact with mucin |  |
| NYTTYKSHFQDR [SEQ ID NO. 9] |  |  |  |  |  |  | found to interact with mucin |  |
| PSSSSSSRIGDP [SEQ ID NO. 23] |  |  |  |  |  |  | found to be mucin interacting |  |
| QAASRVENYMHR [SEQ ID NO. 6] |  |  |  |  |  |  | found not to interact with mucin |  |
| RQSAGVL [SEQ ID NO. 14] |  |  |  |  |  |  | lack of interaction with mucin |  |
| RQSAGVLGFAPTNIDDTSFHA [SEQ ID NO. 16] |  |  |  |  |  |  | found to be mucin interacting |  |
| RQWVGDRA [SEQ ID NO. 17] |  |  |  |  |  |  | found to be mucin interacting |  |
| RWQVGDRADGE [SEQ ID NO. 19] |  |  |  |  |  |  | found to be mucin interacting |  |
| STSTVSTPVPPPVDDTTWLQSAS [SEQ ID NO. 15] |  |  |  |  |  |  | found to be mucus interacting |  |
| TPKTMTQTYDFS [SEQ ID NO. 4] |  |  |  |  |  |  | found not to interact with mucin |  |
| TSHTDAPPARSP [SEQ ID NO. 13] |  |  |  |  |  |  | found to be interacting with mucin |  |
| TSHTDAPPARSP [SEQ ID NO. 34] |  |  |  |  |  |  | found to be mucin interacting |  |
| VGDDSGGFSTTVSTEQNVPDPQV [SEQ ID NO. 20] |  |  |  |  |  |  | not found to be mucin interacting |  |
| YPYDANHTRSPT (not fully specified (N-terminus)) [SEQ ID NO. 10] |  |  |  |  |  |  | found to be interacting with mucin |  |
